Measurements as given in patent publication US20130115671A1, “ENZYMES FROM CONIDIOBOLUS BREFELDIANUS AND PROCESS FOR PREPARATION THEREOF” (Council of Scientific and Industrial Research, priority 2010, published 2013).
Where “and” joins values, the source holds several entries; their conditions need not be identical. Equal values may be shown once. Read-outs that look alike come from different tables or passages of the source. Blank lines part the entries; values can stand above or below the compound they belong to.

How the values were obtained:
[1] = system: protease secreted by Conidiobolus brefeldianus MTCC 5185; test: Effect of metals on protease activity; format: biochemical; details: metal 5 mM in assay mixture, crude protease
[2] = system: protease from Conidiobolus brefeldianus MTCC 5185
Procedure: This example illustrates the stability of the protease in presence of salts. […] Aliquots were removed at regular intervals of 30 min and residual activity was estimated at 50° C., pH 9.

[3] = system: protease of Conidiobolus brefeldianus MTCC 5185; test: Effect of inhibitors on protease activity (PMSF, EDTA, iodoacetate, DMSO); format: biochemical
Text: This example illustrates the effect of inhibitors on protease activity of Conidiobolus brefeldianus MTCC 5185. Following inhibitors were studied: phenylmethylsulfonyl fluoride (PMSF), ethylene-diaminetetraacetic acid (EDTA), iodoacetic acid, and dimeth ylsulphoxide (DMSO). The crude culture filtrate grown as described in example 3 was concentrated by ultra-filtration on PM-10 and YM-3 membranes as described in example 27 and used for inhibition studies. Both the protease preparations were pre-incubated in 100 mM Tris-HCl buffer (pH 8.0) with each inhibitor for 1 h and the residual protease activity was measured at 50° C., pH 9.0. Protease without inhibitor served as control.

[4] = system: protease from Conidiobolus brefeldianus MTCC 5185; test: Stability of protease at 50° C. in presence of trehalose and sorbitol; format: physicochemical; parameters: unit not given here
Text: Stability increased with increasing concentration of trehalose and sorbitol.

[5] = system: protease from Conidiobolus brefeldianus MTCC 5185; test: Stability of protease at 50° C. in presence of sugar alcohols; format: physicochemical; parameters: unit not given here
Procedure: Ultrafiltered protease as described in example 27 was incubated at 50° C. in presence of glycerol, mannitol, sorbitol and xylitol at 20% concentration up to 3 h. Aliquots were removed at regular intervals of 30 min and residual activity was estimated at 50° C., pH 9.

[6] = 10 mM CaCl2, 0.5M NaCl, 0.5M glycine or 15% (NH4)2SO4, 0 min
[7] = salt concentration as in column head, 30 min
[8] = salt concentration as in column head, 60 min
[9] = salt concentration as in column head, 90 min
[10] = salt concentration as in column head, 120 min
[11] = salt concentration as in column head, 180 min
[12] = pre-incubated 1 h, pH 8.0, 20 mM EDTA, 10 mM Iodoacetate, 1 mM PMSF (in DMSO), DMSO
[13] = ultrafiltered protease with 20% sugar alcohol, 0 min

SMILES: [Cl-].[Cl-].[Mg+2] [MgCl2]
Relative Activity (%) of protease [1]: 132.24%

SMILES: O=S(=O)([O-])[O-].[Mg+2] [MgSO4]
Relative Activity (%) of protease [1]: 135.87%

SMILES: [Cl][Mn][Cl] [MnCl2]
Relative Activity (%) of protease [1]: 104.49%

SMILES: O=S(=O)([O-])[O-].[Mn+2] [MnSO4]
Relative Activity (%) of protease [1]: 108.39%

SMILES: [Cl-].[Na+] [NaCl]
Residual Activity (%) of protease at 50° C. [2, 6]: 100.00% | Residual Activity (%) of protease at 50° C. [2, 7]: 77.79% | Residual Activity (%) of protease at 50° C. [2, 8]: 54.11% | Residual Activity (%) of protease at 50° C. [2, 9]: 49.26% | Residual Activity (%) of protease at 50° C. [2, 10]: 48.83% | Residual Activity (%) of protease at 50° C. [2, 11]: 37.44%

SMILES: [Cl][Ni][Cl] [NiCl2]
Relative Activity (%) of protease [1]: 65.60%

SMILES: O=S(=O)(F)Cc1ccccc1 [PMSF, phenylmethylsulfonyl fluoride]
inhibition of protease ([3]; 1 mM PMSF): completely inhibited | Inhibition (%) PM-10 Retentate [3, 12]: 79.27% | Inhibition (%) YM-3 Retentate [3, 12]: 90.24%

residual activity of protease at 50° C. ([4]; additive 20%, 0 h): 100.00 | residual activity of protease at 50° C. ([4]; additive 20%, 1 h): 78.14 | residual activity of protease at 50° C. ([4]; additive 20%, 2 h): 62.15 | residual activity of protease at 50° C. ([4]; additive 20%, 3 h): 46.12 | residual activity of protease at 50° C. ([4]; additive 20%, 4 h): 39.80 | residual activity of protease at 50° C. ([4]; additive 40%, 0 h): 100.00 | residual activity of protease at 50° C. ([4]; additive 40%, 1 h): 85.27 | residual activity of protease at 50° C. ([4]; additive 40%, 2 h): 75.99 | residual activity of protease at 50° C. ([4]; additive 40%, 3 h): 75.47 | residual activity of protease at 50° C. ([4]; additive 40%, 4 h): 71.11 | residual activity of protease at 50° C. ([4]; additive 50%, 0 h): 100.00 | residual activity of protease at 50° C. ([4]; additive 50%, 1 h): 92.32 | residual activity of protease at 50° C. ([4]; additive 50%, 2 h): 89.98 | residual activity of protease at 50° C. ([4]; additive 50%, 3 h): 85.89 | residual activity of protease at 50° C. ([4]; additive 50%, 4 h): 81.89 | residual activity of protease at 50° C. ([4]; additive 50%, 4 h, listed as trehalose): ~80
SMILES: OC[C@H]1O[C@H](O[C@H]2O[C@H](CO)[C@@H](O)[C@H](O)[C@H]2O)[C@H](O)[C@@H](O)[C@@H]1O [Trehalose, trehalose]

SMILES: [Cl-].[Cl-].[Zn+2] [ZnCl2]
Relative Activity (%) of protease [1]: 60.27%

SMILES: O=S(=O)([O-])[O-].[Zn+2] [ZnSO4]
Relative Activity (%) of protease [1]: 58.03%

residual activity of protease at 50° C. ([5]; 20% sugar alcohol, 30 min): 74.68 | residual activity of protease at 50° C. ([5]; 20% sugar alcohol, 60 min): 62.01 | residual activity of protease at 50° C. ([5]; 20% sugar alcohol, 90 min): 49.08 | residual activity of protease at 50° C. ([5]; 20% sugar alcohol, 120 min): 36.97 | residual activity of protease at 50° C. ([5]; 20% sugar alcohol, 180 min): 31.73 | residual activity of protease at 50° C. [5, 13]: 100
SMILES: OCC(O)CO [glycerol]

Residual Activity (%) of protease at 50° C. [2, 6]: 100.00% | Residual Activity (%) of protease at 50° C. [2, 7]: 74.85% | Residual Activity (%) of protease at 50° C. [2, 8]: 54.19% | Residual Activity (%) of protease at 50° C. [2, 9]: 43.16% | Residual Activity (%) of protease at 50° C. [2, 10]: 39.89% | Residual Activity (%) of protease at 50° C. [2, 11]: 31.62%
SMILES: NCC(=O)O [glycine]

residual activity of protease at 50° C. ([5]; 20% sugar alcohol, 30 min): 84.01 | residual activity of protease at 50° C. ([5]; 20% sugar alcohol, 60 min): 70.66 | residual activity of protease at 50° C. ([5]; 20% sugar alcohol, 90 min): 62.31 | residual activity of protease at 50° C. ([5]; 20% sugar alcohol, 120 min): 51.57 | residual activity of protease at 50° C. ([5]; 20% sugar alcohol, 180 min): 47 and 47.11 | residual activity of protease at 50° C. [5, 13]: 100 | residual activity of protease at 50° C. ([4]; additive 20%, 0 h): 100.0 | residual activity of protease at 50° C. ([4]; additive 20%, 1 h): 77.28 | residual activity of protease at 50° C. ([4]; additive 20%, 2 h): 49.25 | residual activity of protease at 50° C. ([4]; additive 20%, 3 h): 42.99 | residual activity of protease at 50° C. ([4]; additive 20%, 4 h): 33.11 | residual activity of protease at 50° C. ([4]; additive 40%, 0 h): 100.0 | residual activity of protease at 50° C. ([4]; additive 40%, 1 h): 87.00 | residual activity of protease at 50° C. ([4]; additive 40%, 2 h): 70.69 | residual activity of protease at 50° C. ([4]; additive 40%, 3 h): 61.54 | residual activity of protease at 50° C. ([4]; additive 40%, 4 h): 58.57 | residual activity of protease at 50° C. ([4]; additive 50%, 0 h): 100.0 | residual activity of protease at 50° C. ([4]; additive 50%, 1 h): 91.31 | residual activity of protease at 50° C. ([4]; additive 50%, 2 h): 88.44 | residual activity of protease at 50° C. ([4]; additive 50%, 3 h): 79.44 | residual activity of protease at 50° C. ([4]; additive 50%, 4 h): ~80 | residual activity of protease at 50° C. ([4]; additive 50%, 4 h, listed as Sorbitol): 78.25
SMILES: OC[C@@H](O)[C@@H](O)[C@H](O)[C@@H](O)CO [sorbitol]

residual activity of protease at 50° C. ([5]; 20% sugar alcohol, 30 min): 76.31 | residual activity of protease at 50° C. ([5]; 20% sugar alcohol, 60 min): 63.36 | residual activity of protease at 50° C. ([5]; 20% sugar alcohol, 90 min): 52.42 | residual activity of protease at 50° C. ([5]; 20% sugar alcohol, 120 min): 44.61 | residual activity of protease at 50° C. ([5]; 20% sugar alcohol, 180 min): 39.25 | residual activity of protease at 50° C. [5, 13]: 100
SMILES: OC[C@@H](O)[C@H](O)[C@@H](O)CO [xylitol]
